Reference: patent US9359409B2, “Antimicrobial peptides, compositions comprising the same and uses thereof” (priority 2012, dated 2016)
Like-named read-outs stand apart in the source and are kept apart here. Ends that are not written are not given here.

Assays:
human erythrocytes = test: Erythrocyte hemolysis assay (cytotoxicity); type: cell-based; conditions: for therapeutic index (antimicrobial potency over the cytotoxicity percentage): in words
Procedure: Subsequently, the capacity of the peptides of the invention for lysing human erythrocytes was evaluated, as a measure of their cytotoxicity (Table 2). The assays were carried out according to the Examples and are expressed as a percentage of total lysis obtained with either water or the surfactant Tween 20. In this assays, the lower hemolysis percentage, the lower expected cytotoxic activity.
Evaluation of cytotoxic activity was performed by means of an erythrocyte hemolysis assay (according to Pure Appl. Chem., Vol. 79, No. 4, pp. 717-728, 2007). In brief, from a volume of heparinized human whole blood, 3 times that volume of PBS is added and centrifuged 10 minutes at 1500 rpm, repeating the washing two more times. 10% blood solutions in PBS were prepared with that pellet. Subsequently, each group was added the corresponding peptide at the indicated concentration and incubated at 37° C. for 30 minutes. […]

S. aureus = type: cell-based
Procedure: (§1) In vitro sensitivity assay of aerobically growing bacteria, using the disc diffusion method was performed according to the standards in the M2 document of the CLSI (Clinical and Laboratory Standards Institute: Performance Standards for Antimicrobial Disk Susceptibility Tests.) using the non-amidated peptides
(§2) In brief, intermediate solutions (10×) of the antimicrobial non-amidated peptides were prepared by serial dilutions 1:2, 1:4 and 1:8 by two-fold dilutions. Then, one part of the solution of the antimicrobial peptide 10× was added to nine parts of melted bacteriological agar. The antibiotic solution was added for each dilution, in the melted agar and cooled to 45-50° C. in a water bath. Then, the agar-antibiotic mixture was placed in a Petri dish until a 3-4 mm depth was reached. The inoculum is prepared with a turbidity of 0.5 in the McFarland scale (approximately 1-2 10^8 CFU/ml). The final inoculum required for the agar dilution test is 10^4 colony forming units (CFU) per “spot” having 5-8 mm in diameter. The inoculated plates must be incubated upside down at 35° C. for a period of 16-20 hs. MIC was recorded as the value of the lower dilution completely inhibiting bacterial development, without considering the development of a single colony or a slight film caused by the inoculum deposit. The final point in these cases will correspond to the concentration at which there is more than 80% reduction in growth as compared with the control.

E. coli = type: cell-based
Procedure: as §1, §2

S. warnerii = type: cell-based
Procedure: as §1, §2

K. pneumoniae = type: cell-based
Procedure: as §1, §2

P. aeruginosa = type: cell-based
Procedure: as §1, §2

S. cohnii = type: cell-based
Procedure: as §1, §2

E. faecalis = test system: E. faecalis
Procedure: (§3) Subsequently, an analysis of a panel of clinical isolates including strains with different resistance mechanisms against conventional antibiotics was carried out, all of which are of clinical relevance. […] In Table 3 the results for a panel of Gram negative bacteria are shown, and in Table 4 for a panel of […] bacteria. In these tables the detected gene/s responsible for the resistance against antibiotics for each strain, are included.
(§4) Antimicrobial activity was analyzed by means of the determination of the MIC (minimum inhibitory concentration) by the microdilution technique. The technique was carried out in the standard fashion according to (CLSI M07-A9 Vol. 32 No 2. January 2012). The peptide concentration range used was from 0.5 μg/mL to 512 μg/mL in two-fold serial dilutions. The used medium was MH Difco broth supplemented with cations, at a final concentration of Ca^++20-25 mg/L and Mg^++10-12.5 mg/L. The working inoculum used corresponds to a 1/100 dilution of a bacterial suspension equivalent to 0.5 in the Mc Farland scale.

S. saprophyticus = test system: S. saprophyticus
Procedure: as §3, §4

A. baumanii = test system: A. baumanii
Procedure: as §3, §4

E. gallinarum = test system: E. gallinarum
Procedure: as §3, §4

S. haemolyticus = test system: S. haemolyticus
Procedure: as §3, §4

Staphylococcus aureus = test: MIC by broth microdilution; type: cell-based
Procedure: (§5) The 5 designed and synthesized peptides of the invention, plus omiganan (peptide of the state of the art) were evaluated for their antimicrobial capacity in microdilution assays for determining the minimum inhibitory concentration (MIC). A first panel of 8 representative strains was analyzed in these assays, encompassing Gram positive and Gram negative bacteria. […] The lowest MIC values indicate a higher antimicrobial potency.
as §3, §4

Pseudomonas aeruginosa = test: MIC by broth microdilution; type: cell-based
Procedure: as §5, §3, §4

Escherichia coli = test system: Escherichia coli
Procedure: as §5, §3, §4

E. raffinosus = test system: E. raffinosus
Procedure: as §3, §4

[1] = A. baumanii FAV-1, resistance gene per + oxa-51 + oxa-58
[2] = A. baumanii M5179, resistance gene oxa-51
[3] = A. baumanii M5277, resistance gene per
[4] = A. baumanii M5282, resistance gene oxa-51
[5] = A. baumanii M7489, resistance gene oxa-51 + tem
[6] = A. baumanii M7978, resistance gene imp
[7] = A. baumanii M13523, resistance gene oxa-51
[8] = E. gallinarum M2685, resistance gene vanC1 + vanA
[9] = E. gallinarum M2723, resistance gene vanC1 + vanA
[10] = S. aureus 28, resistance gene ermA
[11] = S. aureus 33, resistance gene msrA
[12] = S. aureus 204, resistance gene ermA
[13] = S. aureus 239, resistance gene ermC
[14] = S. aureus M2832, resistance gene mecA
[15] = S. aureus M4046, resistance gene mecA
[16] = S. aureus M6276, resistance gene ermA + lnuA
[17] = S. aureus M6784, resistance gene mecA
[18] = P. aeruginosa M7525, resistance gene spm
[19] = P. aeruginosa M7712, resistance gene spm
[20] = P. aeruginosa M7723, resistance gene kpc
[21] = P. aeruginosa M7728, resistance gene imp
[22] = P. aeruginosa M7907, resistance gene per
[23] = E. coli ABC11, resistance gene ctx-m-2
[24] = E. coli Cos15, resistance gene per + tem
[25] = E. coli LCA1, resistance gene ctx-m-2 + tem-1
[26] = E. coli M5306, resistance gene ctx-m-2 + tem-1 + per-2
[27] = E. coli M7859, resistance gene cit
[28] = E. coli M9209, resistance gene kpc
[29] = E. coli NEU23, resistance gene oxa-GIII + tem
[30] = A. baumanii M5949, resistance gene oxa-23 + oxa-GVI
[31] = A. baumanii M9665, resistance gene oxa-51

WPKWWKWKRRWGRKKAKKRRG-NH2 [peptide 1]
64 µg/mL: MIC (E. faecalis) | MIC (A. baumanii; [1]) | MIC (A. baumanii; [2]) | MIC (A. baumanii; [3]) | MIC (A. baumanii; [4]) | MIC (A. baumanii; [5]) | MIC (A. baumanii; [6]) | MIC (A. baumanii; [7]) | MIC (Staphylococcus aureus; [12]) | MIC (Pseudomonas aeruginosa; [18]) | MIC (Pseudomonas aeruginosa; [19]) | MIC (Pseudomonas aeruginosa; [20])
>128 µg/mL: MIC in agar dilution (S. aureus; non-amidated peptides, S. aureus ATCC29213, MSSA) | MIC in agar dilution (S. aureus; non-amidated peptides, S. aureus M6794, MRSA) | MIC in agar dilution (E. coli; non-amidated peptides, E. coli ATCC 25922, WT) | MIC in agar dilution (K. pneumoniae; non-amidated peptides, K. pneumoniae M13540, KPC) | MIC in agar dilution (P. aeruginosa) | MIC in agar dilution (P. aeruginosa; non-amidated peptides, P. aeruginosa M13513, KPC)
3.4%: Hemolysis % (water) (human erythrocytes; peptide 128 ug/ml, percentage of total lysis obtained with water)
16 µg/mL: MIC in agar dilution (S. warnerii) | MIC in agar dilution (S. cohnii) | MIC (S. saprophyticus) | MIC (E. gallinarum; [8]) | MIC (S. haemolyticus) | MIC (Staphylococcus aureus; [16])
128 µg/mL: MIC (E. faecalis; E. faecalis M4449, resistance gene vanA) | MIC (E. faecalis; E. faecalis M4992, resistance gene vanA) | MIC (E. faecalis; E. faecalis M6383, resistance gene vanA) | MIC (E. faecalis; E. faecalis M6534, resistance gene vanB) | MIC (Pseudomonas aeruginosa; P. aeruginosa M5109, resistance gene vim) | MIC (Pseudomonas aeruginosa; P. aeruginosa M5470, resistance gene ND) | MIC (Pseudomonas aeruginosa; [21]) | MIC (Pseudomonas aeruginosa; [22]) | MIC (Escherichia coli; [23]) | MIC (Escherichia coli; [24]) | MIC (Escherichia coli; [25]) | MIC (Escherichia coli; [26]) | MIC (Escherichia coli; [27]) | MIC (Escherichia coli; [28]) | MIC (Escherichia coli; [29])
highest therapeutic index values: therapeutic index (antimicrobial potency over the cytotoxicity percentage) (human erythrocytes)
256 µg/mL: MIC (E. faecalis; E. faecalis ATCC 51299, resistance gene vanB) | MIC (E. faecalis; E. faecalis M4899, resistance gene vanB)
0.067: OD 540 nm (human erythrocytes; peptide 128 ug/ml, supernatant of human erythrocytes, 37° C., 30 minutes)
32 µg/mL: MIC (E. gallinarum; [9]) | MIC (Staphylococcus aureus; [10]) | MIC (Staphylococcus aureus; [11]) | MIC (Staphylococcus aureus; [13]) | MIC (Staphylococcus aureus; S. aureus ATCC29213, WT) | MIC (Staphylococcus aureus; [14]) | MIC (Staphylococcus aureus; [15]) | MIC (Staphylococcus aureus; [17])
4%: Hemolysis % (1% Tween20) (human erythrocytes; peptide 128 ug/ml, percentage of total lysis obtained with 1% Tween20)

RIVQRIKKWLLKWKKLGY-NH2 [peptide 5, RIVQRIKKWLLKWKKLGY]
64 µg/mL: MIC in agar dilution (E. coli) | MIC (Staphylococcus aureus; [10]) | MIC (Staphylococcus aureus; [11]) | MIC (Staphylococcus aureus; [13]) | MIC (Staphylococcus aureus; [14]) | MIC (Staphylococcus aureus; [16]) | MIC (Pseudomonas aeruginosa; [18]) | MIC (Pseudomonas aeruginosa; [19]) | MIC (Pseudomonas aeruginosa; [21]) | MIC (Pseudomonas aeruginosa; [22]) | MIC (Escherichia coli; [24]) | MIC (Escherichia coli; [25]) | MIC (Escherichia coli; [26])
8 µg/mL: MIC in agar dilution (S. warnerii) | MIC in agar dilution (S. cohnii) | MIC (S. saprophyticus) | MIC (A. baumanii; [3]) | MIC (A. baumanii; [4]) | MIC (A. baumanii; [6]) | MIC (E. raffinosus) | MIC (S. haemolyticus)
highest therapeutic index values: therapeutic index (antimicrobial potency over the cytotoxicity percentage) (human erythrocytes)
32 µg/mL: MIC (A. baumanii; [2]) | MIC (A. baumanii; [31]) | MIC (Staphylococcus aureus; [12]) | MIC (Staphylococcus aureus; S. aureus ATCC29213, WT) | MIC (Staphylococcus aureus; [15]) | MIC (Staphylococcus aureus; [17]) | MIC (Pseudomonas aeruginosa; [20]) | MIC (Escherichia coli; [23]) | MIC (Escherichia coli; [29])
>128 µg/mL: MIC in agar dilution (S. aureus) | MIC in agar dilution (K. pneumoniae) | MIC in agar dilution (P. aeruginosa)
4 µg/mL: MIC (A. baumanii; [7])
16 µg/mL: MIC (A. baumanii; [1]) | MIC (A. baumanii; [30]) | MIC (A. baumanii; [5]) | MIC (E. gallinarum; [8]) | MIC (E. gallinarum; [9]) | MIC (Escherichia coli; [27])

GLLKKWLKKWKEFKRIVGY-NH2 [peptide 2, GLLKKWLKKWKEFKRIVGY]
16 µg/mL: MIC in agar dilution (S. cohnii) | MIC (A. baumanii; [1]) | MIC (A. baumanii; [6]) | MIC (E. gallinarum; [8])
high hemolysis values: hemolysis values (in words) (human erythrocytes)
8 µg/mL: MIC in agar dilution (S. warnerii) | MIC (A. baumanii; [4]) | MIC (A. baumanii; [5]) | MIC (E. raffinosus) | MIC (S. haemolyticus)
64 µg/mL: MIC in agar dilution (K. pneumoniae) | MIC (Staphylococcus aureus; [10]) | MIC (Staphylococcus aureus; [12]) | MIC (Staphylococcus aureus; [13]) | MIC (Staphylococcus aureus; S. aureus ATCC29213, WT) | MIC (Pseudomonas aeruginosa; [18]) | MIC (Pseudomonas aeruginosa; [19]) | MIC (Pseudomonas aeruginosa; [20]) | MIC (Pseudomonas aeruginosa; [21]) | MIC (Pseudomonas aeruginosa; [22]) | MIC (Escherichia coli; [24]) | MIC (Escherichia coli; [25]) | MIC (Escherichia coli; [28])
>128 µg/mL: MIC in agar dilution (S. aureus) | MIC in agar dilution (P. aeruginosa)
4 µg/mL: MIC (A. baumanii; [31]) | MIC (Escherichia coli; [26])
32 µg/mL: MIC (A. baumanii; [2]) | MIC (A. baumanii; [3]) | MIC (A. baumanii; [30]) | MIC (A. baumanii; [7]) | MIC (E. gallinarum; [9]) | MIC (Staphylococcus aureus; [17]) | MIC (Escherichia coli; [23]) | MIC (Escherichia coli; [27]) | MIC (Escherichia coli; [29])
128 µg/mL: MIC in agar dilution (E. coli) | MIC (Staphylococcus aureus; [11]) | MIC (Staphylococcus aureus; [14]) | MIC (Staphylococcus aureus; [15])
